How the values were obtained:
[1] = molecular target: Casein kinase II subunit alpha (Zea mays, UniProt P28523); assay: Inhibition of corn CK2
HCT-116 = assay: Inhibition of human HCT116 cells by MTT assay; format: functional, cell-based
PC-3 = assay: Inhibition of human PC3 cells by MTT assay; format: functional, cell-based

Sequence of Casein kinase II subunit alpha (P28523 whole entry): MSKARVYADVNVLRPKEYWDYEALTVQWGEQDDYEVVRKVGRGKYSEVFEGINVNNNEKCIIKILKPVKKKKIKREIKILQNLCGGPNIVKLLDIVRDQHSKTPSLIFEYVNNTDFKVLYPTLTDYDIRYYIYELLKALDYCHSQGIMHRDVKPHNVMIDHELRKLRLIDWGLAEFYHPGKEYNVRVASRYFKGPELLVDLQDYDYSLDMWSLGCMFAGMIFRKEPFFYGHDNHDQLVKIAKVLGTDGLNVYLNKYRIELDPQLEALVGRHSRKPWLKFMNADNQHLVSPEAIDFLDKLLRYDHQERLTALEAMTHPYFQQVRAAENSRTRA

Row | Ki [1] [nM] | IC50 (HCT-116; Homo sapiens, HCT-116) [nM] | IC50 (PC-3; Homo sapiens, PC-3) [nM] | SMILES | IC50 (HCT-116; hct-116) [nM] | IC50 (PC-3; pc-3) [nM]
1 | 3.6 | 330 | 600 | O=C1CCCCc2cnn3c(Nc4cccc(C(=O)N5CC(O)C5)c4)nc(nc23)Nc2cccc(c2)N1 | – | –
2 | 1.4 | 190 | 230 | CN(C)C1CCN(C(=O)c2cccc(Nc3nc4nc5c(cnn35)CCCCC(=O)Nc3cccc(c3)N4)c2)C1 (stereo unspecified) | – | –
3 | 2.2 | 130 | 140 | CCN(CC)C1CCN(C(=O)c2cccc(Nc3nc4nc5c(cnn35)CCCCC(=O)Nc3cccc(c3)N4)c2)C1 (stereo unspecified) | – | –
4 | 3.4 | 300 | 620 | CCN(CC)C1CN(C(=O)c2cccc(Nc3nc4nc5c(cnn35)CCCCC(=O)Nc3cccc(c3)N4)c2)C1 | – | –
5 | 1.3 | 250 | 500 | CN1CCN(C(=O)c2cccc(Nc3nc4nc5c(cnn35)CCCCC(=O)Nc3cccc(c3)N4)c2)CC1 | – | –
6 | 1.4 | 180 | – | CN1CCC(N(C)C(=O)c2cccc(Nc3nc4nc5c(cnn35)CCCCC(=O)Nc3cccc(c3)N4)c2)CC1 | – | –
7 | 7.4 | 270 | 330 | CN1CC(NC(=O)c2cccc(Nc3nc4nc5c(cnn35)CCCCC(=O)Nc3cccc(c3)N4)c2)C1 | – | –
8 | – | – | 5100 | CC(=O)Nc1cccc(Nc2nc(NC3CC3)n3ncc(C#N)c3n2)c1 | – | –
9 | 0.8 | 440 | – | O=C1CCCCc2cnn3c(Nc4cccc(C(=O)N5CCNCC5)c4)nc(nc23)Nc2cccc(c2)N1 | – | –
10 | 2 | 83 | 120 | CN1CCC(N(C)C(=O)c2cccc(Nc3nc4nc5c(cnn35)CCCCC(=O)Nc3cccc(c3)N4)c2)C1 (stereo unspecified) | – | –
11 | 2.4 | 150 | – | CCN(CC)CCN(C)C(=O)c1cccc(Nc2nc3nc4c(cnn24)CCCCC(=O)Nc2cccc(c2)N3)c1 | – | –
12 | 4 | 130 | 210 | CN(C)CCN(C)C(=O)c1cccc(Nc2nc3nc4c(cnn24)CCCCC(=O)Nc2cccc(c2)N3)c1 | – | –
13 | 5.2 | 240 | 380 | CN(C)CCNC(=O)c1cccc(Nc2nc3nc4c(cnn24)CCCCC(=O)Nc2cccc(c2)N3)c1 | – | –
14 | – | – | – | O=C1CCCCc2cnn3c(NC4CC4)nc(nc23)Nc2cccc(c2)N1 | 290 | 880

— ChEMBL document CHEMBL1143858, “Structure-based design and synthesis of novel macrocyclic pyrazolo[1,5-a] [1,3,5]triazine compounds as potent inhibitors of protein kinase CK2 and their anticancer activities” (Bioorg Med Chem Lett, 2008)
